Legend:
Assay type in all cases: biochemical
EGFR = EGFR (Homo sapiens, UniProt P00533); experiment: ADP-Glo in vitro kinase assay
MET = MET (Homo sapiens, UniProt P08581); experiment: ADP-Glo in vitro kinase assay
AKT1 = AKT1 (Homo sapiens, UniProt P31749); experiment: ADP-Glo in vitro kinase assay; relative activity left at […]
Sequence of AKT1 (P31749 whole entry): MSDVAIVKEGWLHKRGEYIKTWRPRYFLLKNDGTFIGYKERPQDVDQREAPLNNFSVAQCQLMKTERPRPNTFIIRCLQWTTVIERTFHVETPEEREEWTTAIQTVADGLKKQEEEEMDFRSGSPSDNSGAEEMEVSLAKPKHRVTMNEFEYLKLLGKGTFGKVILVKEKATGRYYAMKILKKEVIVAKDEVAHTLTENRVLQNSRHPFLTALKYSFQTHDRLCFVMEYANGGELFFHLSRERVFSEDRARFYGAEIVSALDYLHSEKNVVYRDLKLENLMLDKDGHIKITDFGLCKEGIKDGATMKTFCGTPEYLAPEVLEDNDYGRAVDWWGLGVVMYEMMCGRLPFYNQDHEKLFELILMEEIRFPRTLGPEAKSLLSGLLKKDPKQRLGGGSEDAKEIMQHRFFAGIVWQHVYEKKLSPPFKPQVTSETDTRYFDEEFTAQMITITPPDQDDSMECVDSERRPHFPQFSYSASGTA

Sequence of EGFR (P00533 25-1210): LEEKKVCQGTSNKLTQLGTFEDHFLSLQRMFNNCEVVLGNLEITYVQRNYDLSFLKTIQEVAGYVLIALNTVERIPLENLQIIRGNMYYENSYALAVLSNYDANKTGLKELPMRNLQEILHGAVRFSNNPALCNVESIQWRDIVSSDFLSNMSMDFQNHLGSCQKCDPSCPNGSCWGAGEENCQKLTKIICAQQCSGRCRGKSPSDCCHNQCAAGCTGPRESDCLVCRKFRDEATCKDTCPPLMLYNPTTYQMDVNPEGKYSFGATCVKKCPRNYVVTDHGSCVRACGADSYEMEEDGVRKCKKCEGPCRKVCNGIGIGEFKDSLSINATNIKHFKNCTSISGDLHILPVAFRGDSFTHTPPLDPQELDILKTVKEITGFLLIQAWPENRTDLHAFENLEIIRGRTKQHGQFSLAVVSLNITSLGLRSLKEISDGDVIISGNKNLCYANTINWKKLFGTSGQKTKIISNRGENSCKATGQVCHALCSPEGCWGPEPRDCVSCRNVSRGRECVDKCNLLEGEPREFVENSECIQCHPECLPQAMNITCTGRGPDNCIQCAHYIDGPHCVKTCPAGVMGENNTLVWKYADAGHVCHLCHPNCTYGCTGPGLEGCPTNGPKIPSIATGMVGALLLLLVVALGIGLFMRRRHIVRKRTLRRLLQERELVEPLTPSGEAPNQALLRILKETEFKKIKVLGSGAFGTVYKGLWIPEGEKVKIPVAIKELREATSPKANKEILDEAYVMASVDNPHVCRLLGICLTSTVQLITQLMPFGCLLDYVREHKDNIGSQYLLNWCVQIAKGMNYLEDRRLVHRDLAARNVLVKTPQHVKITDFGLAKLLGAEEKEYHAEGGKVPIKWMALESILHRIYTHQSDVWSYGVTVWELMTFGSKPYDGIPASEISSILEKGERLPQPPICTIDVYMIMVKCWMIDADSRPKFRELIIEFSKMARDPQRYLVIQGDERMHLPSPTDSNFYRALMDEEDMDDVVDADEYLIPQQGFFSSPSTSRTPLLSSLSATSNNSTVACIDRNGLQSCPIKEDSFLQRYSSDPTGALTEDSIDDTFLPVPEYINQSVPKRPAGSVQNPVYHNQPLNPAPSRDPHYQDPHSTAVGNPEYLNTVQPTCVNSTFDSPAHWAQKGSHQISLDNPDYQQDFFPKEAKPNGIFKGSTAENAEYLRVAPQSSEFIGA
Sequence of MET (P08581 25-307): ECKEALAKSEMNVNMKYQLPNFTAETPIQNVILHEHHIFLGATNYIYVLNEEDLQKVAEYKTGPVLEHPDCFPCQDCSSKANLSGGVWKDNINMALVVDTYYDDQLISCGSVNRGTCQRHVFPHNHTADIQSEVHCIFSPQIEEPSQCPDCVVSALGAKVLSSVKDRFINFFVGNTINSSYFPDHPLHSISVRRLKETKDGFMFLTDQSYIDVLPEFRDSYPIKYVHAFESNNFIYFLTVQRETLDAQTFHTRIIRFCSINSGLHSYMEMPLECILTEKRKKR
Sequence of MET (P08581 308-1390): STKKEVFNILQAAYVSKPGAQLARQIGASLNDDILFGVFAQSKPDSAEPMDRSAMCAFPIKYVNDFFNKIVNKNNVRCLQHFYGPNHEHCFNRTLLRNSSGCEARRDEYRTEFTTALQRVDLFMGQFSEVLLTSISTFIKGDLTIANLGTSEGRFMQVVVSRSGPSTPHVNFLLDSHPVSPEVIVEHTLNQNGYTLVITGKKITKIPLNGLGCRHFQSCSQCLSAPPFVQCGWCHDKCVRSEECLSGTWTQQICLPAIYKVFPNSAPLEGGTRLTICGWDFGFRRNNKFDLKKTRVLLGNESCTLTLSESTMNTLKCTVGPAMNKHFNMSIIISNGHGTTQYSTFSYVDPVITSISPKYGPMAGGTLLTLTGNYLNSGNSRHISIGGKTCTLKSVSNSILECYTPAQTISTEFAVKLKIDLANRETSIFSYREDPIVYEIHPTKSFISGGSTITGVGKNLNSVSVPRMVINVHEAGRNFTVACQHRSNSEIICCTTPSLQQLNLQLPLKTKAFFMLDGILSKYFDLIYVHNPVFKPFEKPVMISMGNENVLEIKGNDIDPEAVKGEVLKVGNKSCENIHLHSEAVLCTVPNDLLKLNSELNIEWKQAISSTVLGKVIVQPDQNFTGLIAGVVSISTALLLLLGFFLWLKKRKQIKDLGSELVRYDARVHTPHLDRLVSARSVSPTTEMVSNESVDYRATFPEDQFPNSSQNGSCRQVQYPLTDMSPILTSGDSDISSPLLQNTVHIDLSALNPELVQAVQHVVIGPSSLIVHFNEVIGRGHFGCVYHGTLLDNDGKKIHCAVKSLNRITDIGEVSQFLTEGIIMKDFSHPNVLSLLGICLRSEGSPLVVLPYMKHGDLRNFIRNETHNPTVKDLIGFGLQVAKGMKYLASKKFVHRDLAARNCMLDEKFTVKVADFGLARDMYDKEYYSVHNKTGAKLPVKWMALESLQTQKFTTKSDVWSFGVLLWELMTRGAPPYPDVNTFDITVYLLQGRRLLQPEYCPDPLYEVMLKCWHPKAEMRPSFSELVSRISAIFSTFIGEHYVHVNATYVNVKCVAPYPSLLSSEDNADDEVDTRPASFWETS

SMILES | IC50 (EGFR) | IC50 (MET) | activity at 8 µM (AKT1)
CC(=O)O[C@H]1CC[C@]2(C)C3=CC[C@]4(C)[C@H]5[C@H](O)C[C@@H](C(C)C)[C@]5(C)CC[C@@]4(C)[C@@H]3[C@@H](O)C[C@H]2C1(C)C [ARu-B, 3-O-acetylrubiarbonol B] | 3 µM | 1.7 µM | 58%
CC(C)[C@@H]1C[C@@H](O)[C@H]2[C@@]1(C)CC[C@@]1(C)[C@H]3C(=CC[C@]21C)[C@@]1(C)CC[C@H](O)C(C)(C)[C@@H]1C[C@@H]3O [Ru-B, rubiarbonol B] | 7.6 µM | 4.2 µM | 67.1%
